We go through 31 compounds from US20240246992A1, “MACROCYCLIC LRRK2 KINASE INHIBITORS” (LES LABORATOIRES SERVIER, priority 2021, published 2024).

Sequence of human recombinant LRRK2 protein (Q5S007 whole entry): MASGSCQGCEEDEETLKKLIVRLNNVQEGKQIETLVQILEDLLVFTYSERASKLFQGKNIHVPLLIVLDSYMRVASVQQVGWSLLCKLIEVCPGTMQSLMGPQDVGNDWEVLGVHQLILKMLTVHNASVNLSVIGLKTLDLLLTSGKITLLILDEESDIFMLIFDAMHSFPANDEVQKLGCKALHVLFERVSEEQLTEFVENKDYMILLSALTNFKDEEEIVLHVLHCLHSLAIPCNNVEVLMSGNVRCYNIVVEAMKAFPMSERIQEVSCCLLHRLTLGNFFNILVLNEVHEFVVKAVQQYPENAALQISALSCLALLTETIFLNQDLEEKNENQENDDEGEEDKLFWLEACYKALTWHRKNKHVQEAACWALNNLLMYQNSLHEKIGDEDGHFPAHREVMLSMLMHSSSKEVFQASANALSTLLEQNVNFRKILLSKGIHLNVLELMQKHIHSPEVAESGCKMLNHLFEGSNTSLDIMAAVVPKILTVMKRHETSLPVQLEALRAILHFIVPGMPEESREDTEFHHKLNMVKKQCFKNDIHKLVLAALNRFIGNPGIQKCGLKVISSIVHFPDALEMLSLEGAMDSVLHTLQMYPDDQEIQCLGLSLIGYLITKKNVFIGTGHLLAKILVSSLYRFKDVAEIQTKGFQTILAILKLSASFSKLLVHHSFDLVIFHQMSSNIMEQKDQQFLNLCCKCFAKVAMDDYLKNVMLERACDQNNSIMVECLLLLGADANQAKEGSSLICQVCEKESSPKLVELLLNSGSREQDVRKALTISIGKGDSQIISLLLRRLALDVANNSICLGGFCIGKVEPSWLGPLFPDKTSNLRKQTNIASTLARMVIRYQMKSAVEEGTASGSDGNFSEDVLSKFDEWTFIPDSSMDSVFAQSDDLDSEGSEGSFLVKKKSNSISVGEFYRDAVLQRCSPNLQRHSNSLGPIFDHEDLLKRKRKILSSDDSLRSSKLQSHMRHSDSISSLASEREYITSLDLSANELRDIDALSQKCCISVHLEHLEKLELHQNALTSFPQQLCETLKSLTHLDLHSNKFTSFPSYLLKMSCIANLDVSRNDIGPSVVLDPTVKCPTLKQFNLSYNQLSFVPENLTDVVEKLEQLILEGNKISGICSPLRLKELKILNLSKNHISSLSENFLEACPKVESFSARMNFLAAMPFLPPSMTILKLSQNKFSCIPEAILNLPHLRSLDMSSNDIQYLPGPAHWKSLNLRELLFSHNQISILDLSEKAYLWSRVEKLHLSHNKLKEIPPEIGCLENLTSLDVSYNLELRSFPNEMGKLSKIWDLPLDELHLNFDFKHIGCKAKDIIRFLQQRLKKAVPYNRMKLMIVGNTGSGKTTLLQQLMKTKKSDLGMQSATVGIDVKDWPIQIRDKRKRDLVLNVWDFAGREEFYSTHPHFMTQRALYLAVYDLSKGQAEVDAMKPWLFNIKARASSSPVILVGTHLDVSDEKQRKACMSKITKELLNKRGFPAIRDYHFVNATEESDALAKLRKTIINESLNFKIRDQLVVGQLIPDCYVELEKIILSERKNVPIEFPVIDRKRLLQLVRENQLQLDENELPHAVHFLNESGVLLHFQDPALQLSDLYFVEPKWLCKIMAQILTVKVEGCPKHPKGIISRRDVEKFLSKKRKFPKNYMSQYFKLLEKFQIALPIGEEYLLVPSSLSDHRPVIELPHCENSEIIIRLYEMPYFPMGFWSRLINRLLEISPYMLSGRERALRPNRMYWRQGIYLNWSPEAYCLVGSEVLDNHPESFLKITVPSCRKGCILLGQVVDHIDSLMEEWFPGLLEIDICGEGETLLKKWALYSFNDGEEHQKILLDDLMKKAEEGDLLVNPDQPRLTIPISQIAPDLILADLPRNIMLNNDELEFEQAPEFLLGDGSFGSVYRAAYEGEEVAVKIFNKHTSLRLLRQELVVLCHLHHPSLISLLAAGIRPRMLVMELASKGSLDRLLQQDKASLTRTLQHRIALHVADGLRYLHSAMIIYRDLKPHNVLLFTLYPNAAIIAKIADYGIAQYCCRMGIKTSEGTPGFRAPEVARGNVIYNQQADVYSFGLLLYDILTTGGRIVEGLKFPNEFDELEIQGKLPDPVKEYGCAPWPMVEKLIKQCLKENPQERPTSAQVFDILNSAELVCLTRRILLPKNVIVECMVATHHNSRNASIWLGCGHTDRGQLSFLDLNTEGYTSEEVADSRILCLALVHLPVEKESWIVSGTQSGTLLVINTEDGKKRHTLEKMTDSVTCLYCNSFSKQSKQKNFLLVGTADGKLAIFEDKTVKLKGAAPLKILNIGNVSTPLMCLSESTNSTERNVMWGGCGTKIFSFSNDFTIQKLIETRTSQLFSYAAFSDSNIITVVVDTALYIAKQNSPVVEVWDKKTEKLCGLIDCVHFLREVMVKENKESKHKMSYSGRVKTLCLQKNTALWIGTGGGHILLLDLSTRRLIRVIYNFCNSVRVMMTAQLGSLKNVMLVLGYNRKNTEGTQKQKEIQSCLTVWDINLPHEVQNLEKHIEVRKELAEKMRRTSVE

The test has as its target human recombinant LRRK2 protein (Homo sapiens, UniProt Q5S007). Nature of the test: LRRK2 kinase activity assay (ADP-Glo, LRRKtide peptide). The class given is biochemical. As to conditions: human recombinant LRRK2 wt, LRRKtide peptide and ATP, 1 h at 37° C. The method, boiled down:
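Human recombinant LRRK2 reacted with LRRKtide peptide and ATP for 1 h at 37 °C in the presence of compound. ADP formed measured by ADP-Glo luminescence; IC50 fitted from 10 concentrations run in duplicate.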
For orientation: IC50 means the midpoint of a concentration-inhibition curve. With `C[C@@H]1CCOCC(F)(F)COc2ccc3[nH]nc(c3c2)-c2cnn1c2` [Example 109, (6R)-11,11-difluoro-6-methyl-9,13-dioxa-4,5,18,19-tetraazatetracyclo [12.5.2.1^2,5.0^17,20]docosa-1(19),2(22),3,14(21),15,17(20)-hexaene], the IC50 was under 100 nM.
The result for `[2H]C1([2H])OCCO[C@@H](C)COc2ccc3[nH]nc(c3c2)-c2cnn(c2)C1([2H])[2H]` [Example 110, (12S)-12-methyl(6,6,7,7-2H4)-8,11,14-trioxa-4,5,19,20-tetraazatetracyclo [13.5.2.1^2,5.0^18,21]tricosa-1(20),2(23),3,15(22),16,18(21)-hexaene] reads under 10 nM.
In the case of `FC1(F)COCCCn2cc(cn2)-c2n[nH]c3ccc(cc23)OC1` [Example 111, 11,11-difluoro-9,13-dioxa-4,5,18,19-tetraazatetracyclo[12.5.2.1^2,5.0^17,20] docosa-1(19),2(22),3,14(21),15,17(20)-hexaene], the half-maximal inhibitory concentration (IC50) is under 100 nM.
The value for `C[C@H]1COc2ccc3[nH]nc(c3c2)-c2cnn(c2)CCCCCO1` [Example 112, (12S)-12-methyl-11,14-dioxa-4,5,19,20-tetraazatetracyclo[13.5.2.1^2,5.0^18,21] tricosa-1(20),2(23),3,15(22),16,18(21)-hexaene] was under 10 nM; that for `C[C@H]1OCCOCCn2cc(cn2)-c2n[nH]c3ccc(cc23)O[C@@H]1C` [Example 113, (12R,13R)-12,13-dimethyl-8,11,14-trioxa-4,5,19,20-tetraazatetracyclo [13.5.2.1^2,5.0^18,21]tricosa-1(20),2(23),3,15(22),16,18(21)-hexaene] was under 10 nM.
For the compound `C[C@@H]1OCCOCCn2cc(cn2)-c2n[nH]c3ccc(cc23)O[C@H]1C` [Example 114, (12S,13S)-12,13-dimethyl-8,11,14-trioxa-4,5,19,20-tetraazatetracyclo [13.5.2.1^2,5.0^18,21]tricosa-1(20),2(23),3,15(22),16,18(21)-hexaene], the half-maximal inhibitory concentration (IC50) was under 10 nM.
The result for `c1cc2[nH]nc3c2cc1OCCCCOCCn1ncc-3n1` [Example 115, 8,13-dioxa-4,5,18,19,22-pentaazatetracyclo[12.5.2.1^2,5.0^17,20]docosa-1(19),2(22),3,14(21),15,17(20)-hexaene] reads under 10 nM.
The value for `C[C@@H]1CCO[C@@H](C)CCOc2ccc3[nH]nc(c3c2)-c2cnn1c2` [Example 116, (6R,10S)-6,10-dimethyl-9,13-dioxa-4,5,18,19-tetraazatetracyclo[12.5.2.1^2,5.0^17,20]docosa-1(19),2(22),3,14(21),15,17(20)-hexaene] was under 100 nM; that for `C[C@@H]1C[C@@H](C)n2cc(cn2)-c2n[nH]c3ccc(cc23)OCCCO1` [Example 117, (6R,8R)-6,8-dimethyl-9,13-dioxa-4,5,18,19-tetraazatetracyclo[12.5.2.1^2,5.0^17,20] docosa-1(19),2(22),3,14(21),15,17(20)-hexaene] was under 100 nM; that for `FC1(F)COCCCOc2ccc3[nH]nc(c3c2)-c2cnn(c2)C1` [Example 118, 7,7-difluoro-9,13-dioxa-4,5,18,19-tetraazatetracyclo[12.5.2.1^2,5.0^17,20] docosa-1(19),2(22),3,14(21),15,17(20)-hexaene] was under 10 nM.
The result for `C[C@H]1COCCCOCc2nc(cn2C)-c2n[nH]c3ccc(cc23)O1` [Example 119, (13S)-4,13-dimethyl-7,11,14-trioxa-4,19,20,23-tetraazatetracyclo [13.5.2.1^2,5.0^18,21]tricosa-1(20),2,5(23),15(22),16,18(21)-hexaene] reads under 1000 nM; that for `C[C@@H]1CCOCC(F)(F)Cn2cc(cn2)-c2n[nH]c3ccc(cc23)O1` [Example 120, (12R)-7,7-difluoro-12-methyl-9,13-dioxa-4,5,18,19-tetraazatetracyclo [12.5.2.1^2,5.0^17,20]docosa-1(19),2(22),3,14(21),15,17(20)-hexaene], under 10 nM.
With `C1=C/COCCOc2ccc3[nH]nc(c3c2)-c2cnn(c2)CC/1` [Example 121, (8E)-11,14-dioxa-4,5,19,20-tetraazatetracyclo[13.5.2.1^2,5.0^18,21]tricosa-1(20),2(23),3,8,15(22),16,18(21)-heptaene], the IC50 is under 10 nM.
With `C[C@H]1CCCOCCn2ncc(n2)-c2n[nH]c3ccc(cc23)O1` [Example 122, (12S)-12-methyl-8,13-dioxa-4,5,18,19,22-pentaazatetracyclo[12.5.2.1^2,5.0^17,20]docosa-1(19),2(22),3,14(21),15,17(20)-hexaene], the IC50 was under 10 nM.
The result for `C[C@@H]1CCOc2ccc3[nH]nc(c3c2)-c2cnn(c2)[C@H](C)CCO1` [Example 123, (6R,10R)-6,10-dimethyl-9,13-dioxa-4,5,18,19-tetraazatetracyclo[12.5.2.1^2,5.0^17,20]docosa-1(19),2(22),3,14(21),15,17(20)-hexaene] reads under 10 nM; that for `C[C@@H]1CCCOCCn2ncc(n2)-c2n[nH]c3ccc(cc23)O1` [Example 124, (12R)-12-methyl-8,13-dioxa-4,5,18,19,22-pentaazatetracyclo [12.5.2.1^2,5.0^17,20]docosa-1(19),2(22),3,14(21),15,17(20)-hexaene], under 10 nM.
The value for `C[C@@H]1CCOCCCc2ncn(n2)-c2n[nH]c3ccc(cc23)O1` [Example 125, (12R)-12-methyl-9,13-dioxa-2,4,18,19,22-pentaazatetracyclo[12.5.2.1^2,5.0^17,20]docosa-1(19),3,5(22),14(21),15,17(20)-hexaene] was under 10 nM; that for `C[C@@H]1C[C@@H](C)Oc2ccc3[nH]nc(c3c2)-c2cnn(c2)CCCO1` [Example 126, (10R,12R)-10,12-dimethyl-9,13-dioxa-4,5,18,19-tetraazatetracyclo [12.5.2.1^2,5.0^17,20]docosa-1(19),2(22),3,14(21),15,17(20)-hexaene] was under 10 nM; that for `C[C@@H]1CCn2ncc(n2)-c2n[nH]c3ccc(cc23)O[C@H](C)CCO1` [Example 127, (8R,12R)-8,12-dimethyl-9,13-dioxa-4,5,18,19,22-pentaazatetracyclo [12.5.2.1^2,5.0^17,20]docosa-1(19),2(22),3,14(21),15,17(20)-hexaene] was under 10 nM.
The result for `C[C@@H]1CCCOC[C@@H](C)n2cc(cn2)-c2n[nH]c3ccc(cc23)O1` [Example 128, (6R,12R)-6,12-dimethyl-8,13-dioxa-4,5,18,19-tetraazatetracyclo[12.5.2.1^2,5.0^17,20]docosa-1(19),2(22),3,14(21),15,17(20)-hexaene] reads under 10 nM; that for `C[C@H]1COc2ccc3[nH]nc(c3c2)-c2cnn(c2)CCCOCCO1` [Example 129, (13S)-13-methyl-9,12,15-trioxa-4,5,20,21-tetraazatetracyclo[14.5.2.1^2,5.0^19,22]tetracosa-1(21),2(24),3,16(23),17,19(22)-hexaene], under 100 nM; that for `C[C@@H]1COCCCCn2ncc(n2)-c2n[nH]c3ccc(cc23)O1` [Example 130, (12R)-12-methyl-10,13-dioxa-4,5,18,19,22-pentaazatetracyclo[12.5.2.1^2,5.0^17,20] docosa-1(19),2(22),3,14(21),15,17(20)-hexaene], under 100 nM.
Take `C[C@@H]1CCOCCOCCn2cc(cn2)-c2n[nH]c3ccc(cc23)O1` [Example 131, (14R)-14-methyl-8,11,15-trioxa-4,5,20,21-tetraazatetracyclo[14.5.2.1^2,5.0^19,22]tetracosa-1(21),2(24),3,16(23),17,19(22)-hexaene]: the IC50 was under 10 nM.
For the compound `C[C@@H]1C[C@H](C)OCCCOc2ccc3[nH]nc(c3c2)-c2cnn1c2` [Example 132, (6R,8S)-6,8-dimethyl-9,13-dioxa-4,5,18,19-tetraazatetracyclo[12.5.2.1^2,5.0^17,20]docosa-1(19),2(22),3,14(21),15,17(20)-hexaene], the IC50 is under 100 nM.
The result for `C[C@@H]1CCOCCOCCn2ncc(n2)-c2n[nH]c3ccc(cc23)O1` [Example 133, (14R)-14-methyl-8,11,15-trioxa-4,5,20,21,24-pentaazatetracyclo[14.5.2.1^2,5.0^19,22]tetracosa-1(21),2(24),3,16(23),17,19(22)-hexaene] reads under 100 nM; that for `O=C1COc2cccc(c2)-c2n[nH]c3ccc(cc23)OCCCN1` [Example 134, 7,14-dioxa-10,19,20-triazatetracyclo[13.5.2.1^2,6.0^18,21]tricosa-1(20),2(23), 3,5,15(22),16,18(21)-heptaen-9-one], under 100 nM; that for `c1cc2cc(c1)-c1n[nH]c3ccc(cc13)OCCCNCCO2` [Example 135, 7,14-dioxa-10,19,20-triazatetracyclo[13.5.2.1^2,6.0^18,21]tricosa-1(20),2(23),3,5,15(22),16,18(21)-heptaene], under 10 nM.
The result for `O=C1COc2cncc(c2)-c2n[nH]c3ccc(cc23)OCCCN1` [Example 136, 7,14-dioxa-4,10,19,20-tetraazatetracyclo[13.5.2.1^2,6.0^18,21]tricosa-1(20),2,4,6(23),15,17,21-heptaen-9-one] reads under 10 nM; that for `c1cc2[nH]nc3c2cc1OCCCNCCOc1cncc-3c1` [Example 137, 7,14-dioxa-4,10,19,20-tetraazatetracyclo[13.5.2.1^2,6.0^18,21]tricosa-1(20),2,4,6(23),15,17,21-heptaene], under 10 nM; that for `O=C1COc2cc(ccc2F)-c2n[nH]c3ccc(cc23)OCCCN1` [Example 138, 5-fluoro-7,14-dioxa-10,19,20-triazatetracyclo[13.5.2.1^2,6.0^18,21]tricosa-1(20),2,4,6(23),15,17,21-heptaen-9-one], under 100 nM.
As to `Fc1ccc2cc1OCCNCCCOc1ccc3[nH]nc-2c3c1` [Example 139, 5-fluoro-7,14-dioxa-10,19,20-triazatetracyclo[13.5.2.1^2,6.0^18,21]tricosa-1(20),2,4,6(23),15,17,21-heptaene], the IC50 is under 10 nM.
